Experimental data as given in PMC8924211 (Nature Communications, 2022).
Substitutions are numbered along the chain they refer to.

What was measured:
Experiment in all cases: Calcium assay, HEK293/Gα16 cells, GAL2R mutants
Type in all cases: cell-based
[1] = target: T1, GAL2R mutants (Homo sapiens, UniProt O43603, I85A); details: GAL2R I852.64A
T1 construct: expressed in transfected cells; host or cells: HEK293
T1 sequence (O43603 1-387 I85A): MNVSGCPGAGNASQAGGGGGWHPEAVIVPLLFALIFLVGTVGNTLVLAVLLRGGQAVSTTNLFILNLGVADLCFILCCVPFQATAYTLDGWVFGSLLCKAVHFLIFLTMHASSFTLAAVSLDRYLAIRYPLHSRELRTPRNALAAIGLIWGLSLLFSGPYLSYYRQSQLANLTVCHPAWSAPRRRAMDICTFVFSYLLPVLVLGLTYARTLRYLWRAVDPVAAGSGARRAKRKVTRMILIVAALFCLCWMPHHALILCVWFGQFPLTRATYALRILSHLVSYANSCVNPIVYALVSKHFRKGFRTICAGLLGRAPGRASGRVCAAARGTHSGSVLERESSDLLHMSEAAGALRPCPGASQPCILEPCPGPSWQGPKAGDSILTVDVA

[2] = target: T2, GAL2R mutants (Homo sapiens, UniProt O43603, L172A); details: GAL2R L172ECL2A
T2 construct: expressed in transfected cells; host or cells: HEK293
T2 sequence (O43603 1-387 L172A): T1 sequence (O43603 1-387 I85A) with A85I, L172A

[3] = target: T3, GAL2R mutants (Homo sapiens, UniProt O43603, T267A); details: GAL2R T2677.28A
T3 construct: expressed in transfected cells; host or cells: HEK293
T3 sequence (O43603 1-387 T267A): T1 sequence (O43603 1-387 I85A) with A85I, T267A

[4] = response of 100 μM spexin compared to WT, mean ± S.E.M.

With spexin the Emax ([1]; response of 100 μM spexin compared to WT) was “NR (NR, no response, refers to response < 10% compared to WT receptor (spexin at 100 μM))”, the Emax ([1]; spexin, replicate 1) was “no response” and the Emax ([1]; spexin, replicate 2) was “no response”. The Emax ([1]; spexin, replicate 3) was “no response”, the Emax [2, 4] was 33.56±1.2% and the EC50 ([2]; spexin, replicate 1) was 3.125 µM. It also gave an Emax ([2]; spexin, replicate 1) of 31.8616%, an EC50 ([2]; spexin, replicate 2) of 10.79 µM and an Emax ([2]; spexin, replicate 2) of 33.0538%. For the same substance, the EC50 ([2]; spexin, replicate 3) was 12.08 µM, the Emax ([2]; spexin, replicate 3) was 35.752% and the Emax [3, 4] was 19.9±3.4%. It also gave an EC50 ([3]; spexin, replicate 1) of 0.0008339 µM, an Emax ([3]; spexin, replicate 1) of 26.5588% and an EC50 ([3]; spexin, replicate 2) of 10.49 µM. The Emax ([3]; spexin, replicate 2) was 17.6424%, the EC50 ([3]; spexin, replicate 3) was 1.506 µM and the Emax ([3]; spexin, replicate 3) was 15.5083%.
